Measured values reported in patent publication US12729381B2, “Methods and compositions for inactivating interleukin-2-inducible t-cell kinase (ITK)” (priority 2020, dated 2026).
Non-standard residues stand in square brackets, D forms with d. No end group written: not given here. *: point of attachment. FITC = O=C1OC2(c3ccc(O)cc3Oc3cc(O)ccc32)c2ccc(NC(=S)*)cc21; pY = N[C@@H](Cc1ccc(OP(=O)(O)O)cc1)C(=O)O

System: SLP76: ITK signaling
Test: Western blot of signaling proteins in human T cells from PBMC stimulated with anti-CD3 (OKT3)
Assay type: cell-based
Settings: vs vehicle alone
Protocol: Western blotting: For protein analysis, T cells were either nonstimulated, or stimulated with anti-CD3 and anti-CD28 for 24 hours overnight, and were lysed with freshly prepared lysis buffer (RIPA Buffer (Fisher Scientific cat #PI89900)+cOmplete Protease Inhibitor Cocktail (Sigma-Aldrich; cat #11697498001)) and centrifuged for 10 minutes at 14000 rpm at 4° C. Protein aliquots of 70 μg of protein were loaded on a 12-18% denaturing polyacrylamide gel and transferred to nitrocellulose membranes for immunoblot analysis using antibodies specific to proteins of interest.
Human Samples: According to our IRB protocol (1140566-4), blood samples were obtained by vein puncture, and T cells were isolated from peripheral blood mononuclear cells (PBMC) of regular healthy donors. T cells were isolated from patient and healthy donor samples by Ficoll-Hypaque density centrifugation. The final product was resuspended at 3×10^6 cells/ml in media and stimulated with OKT-3/anti-CD3 ([…]; Ortho Bio-Tech) and anti-human CD28 ([…]; Biolegend; cat #302902) presence of […] of protamine sulfate and 1 mg/ml SLP76pTYR or vehicle for five minutes. T cell lysates were used in western blot analysis.
ITK deficiency is known to enhance the development of regulatory T cells (Tregs) (Elmore et al., 2020, Owen et al., 2019) so the peptide inhibitor was tested to determine whether inhibition of the ITK: SLP76Y145 interactions using SLP76pTYR would induce Tregs. First, the frequency of Tregs was examined by expression of CD4^+ and FoxP3^+ (FIG. 18A). Next, total mouse T cells were stimulated with anti-CD3 (Sugie et al., 2004) in the presence of either SLP76pTYR, nonspecific peptide, or vehicle alone for 5 to 24 hours, and cells were harvested and examined for the presence of Tregs (CD4^+CD25^+FoxP3^+). […] Next, the effects of SLP76pTYR peptide on human PBMC samples from healthy human patients was investigated. T cells from these patients were stimulated with anti-CD3 (OKT3) (Karimi et al., 2005) for 5 minutes in the presence of SLP76pTYR or vehicle alone. […] No differences in stimulated or unstimulated total human AKT (FIG. 18E and FIG. 28H) was observed, providing a showing that the SLP76pTYR peptide has an impact on signaling pathways downstream of SLP76 in both mouse and human T cells. […] Next, the ability of SLP76pTYR peptide to affect the production of proinflammatory cytokines in human PBMCs was investigated. T cells from healthy human were stimulated with anti-CD3 (OKT3) and anti-CD28 in the presence of SLP76pTYR or vehicle alone, along with Brefeldin A. T cells incubated with SLP76pTYR or vehicle alone were also examined in the presence of PMA+lonomycin and Brefeldin A for 6 hours.
More specifically, FIGS. 18A-18F depict Novel peptide SLP76pTYR specifically targets SLP76: ITK signaling and enhances Treg cell development. (FIG. 18A) Murine CD4^+ T cells were examine for total CD4+ and FOXP3 expression prior to treatment with SLP76pTYR. n=3, and one representative experiment is shown. (FIG. 18B) Total T cells stimulated in the presence of SLP76pTYR, nonspecific peptide, or vehicle alone were examined for total CD4 cells that are FoxP3^+. n=3, and one representative experiment is shown. (FIG. 18C) Quantification of three experiments as in (A) (FIG. 18D) Cell lysates were obtained from mouse T cells stimulated with anti-CD3 and anti-CD28 in the presence of SLP76pTYR, or vehicle alone. […]

FITC Dye ^132NEEEEAPVEDDADpYEPPPSNDEEA^155-TAT ({FITC}-NEEEEAPVEDDAD[pY]EPPPSNDEEAGRKKRRQRRRPQ) [SLP76pTYR]
phosphorylation of ERK, stimulated (anti-CD3 (OKT3) for 5 minutes): reduced phosphorylation of PLCγ1 and ERK | phosphorylation of PLCγ1, stimulated (anti-CD3 (OKT3) for 5 minutes): reduced phosphorylation of PLCγ1 and ERK | non-stimulated phospho ERK (non-stimulated T cells): No differences in non-stimulated phospho PLCγ1 and ERK were observed | non-stimulated phospho PLCγ1 (non-stimulated T cells): No differences in non-stimulated phospho PLCγ1 and ERK were observed | total AKT and stimulated or unstimulated phospho AKT: No differences in total AKT or either stimulated or unstimulated phospho AKT was observed
